These results are taken from patent US20230140290A1, “SALICYLAMIDE DERIVATIVES AND RELATED METHODS OF MAKING” (THE BOARD OF REGENTS OF THE UNIVERSITY OF TEXAS SY, priority 2020, published 2023).

Series [1] concerns HAdV5-GFP. Nature of the series: Plaque assay (inhibition of HAdV plaque formation). Format: cell-based, HAdV-5. The conditions noted are these: for Selectivity index (SI): ratio of CC50 to IC50 in plaque assay; for inhibition at 10 µM: read-out: Plaque Assay (%) Inhibition (10 μM); for IC50: read-out: Plaque Assay IC50 (μM), HAdV5-GFP, low MOI, 293β5 cell line. As for the experimental part:
Plaque Assay. […] When cells reached 80-90% confluency, they were infected with HAdV5-GFP (0.06 vp/cell) and rocked for 2 h at 37° C. After the incubation the inoculum was removed, and the cells were washed once with PBS.
Plaque Assay. Compounds were tested using low MOI infections (0.06 vp/cell) and at concentrations of 10 μM and in a dose-response assay ranging from 10 to 0.3 μM in a plaque assay. […] When cells reached 80-90% confluency, they were infected with HAdV5-GFP (0.06 vp/cell) and rocked for 2 h at 37° C. After the incubation the inoculum was removed, and the cells were washed once with PBS. […] The mixture also contained the compounds in concentrations ranging from 10 to 0.3 μM.

Series [2] deals with A549 cells. Kind of series: Cytotoxicity assay (AlamarBlue). The note with it: read-out: CC50 (μM), cytotoxic concentration 50%; A549 cell line, 48 h. The protocol: Cytotoxicity Assay. The cytotoxicity of the compounds was analyzed by commercial kit AlamarBlue® (Invitrogen, Ref. DAL1025). A549 cells at a density of 5×10^3 cells per well in 96-well plates were seeded. […] Cells were then incubated at 37° C. for 48 h following the kit protocol. The cytotoxic concentration 50 (CC50) value was obtained using the statistical package GraphPad Prism. This assay was performed in duplicate.

Consider `O=C(Nc1cc(NC2CCCC2)ccc1F)c1cc(Cl)ccc1O` [Compound 144, 5-Chloro-N-(5-(cyclopentylamino)-2-fluorophenyl)-2-hydroxybenzamide], for which, in series [1], the “Selectivity index (SI)” value is 32.8, the inhibition at 10 µM was 99.8 ± 0.4% and the IC50 came to 1.34 ± 0.05 µM. The CC50 in series [2] is 44 ± 12.8 µM.

`O=C(Nc1ccc(NCC2CC2)cc1Cl)c1cc(Cl)ccc1O` [Compound 85, 5-Chloro-N-(2-chloro-4-((cyclopropylmethyl)amino)phenyl)-2-hydroxybenzamide]: in series [1], the “Selectivity index (SI)” value came to 10.4, the inhibition at 10 µM stood at 100% and the IC50 was 1.38 µM. Moreover, the CC50 in series [2] came out at 14.4 µM.

With `O=C(Nc1ccc(NC2CCCCC2)cc1Cl)c1cc(Cl)ccc1O` [Compound 88, 5-Chloro-N-(2-chloro-4-(cyclohexylamino)phenyl)-2-hydroxybenzamide], in series [1], the “Selectivity index (SI)” value is recorded as 51.1, the inhibition at 10 µM is 99.5 ± 0.7% and the IC50 was found to be 1.34 µM. Also, the CC50 in series [2] turned out to be 68.3 µM.

For `CCNc1ccc(NC(=O)c2cc(Cl)ccc2O)c(Cl)c1` [Compound 79, 5-Chloro-N-(2-chloro-4-(ethylamino)phenyl)-2-hydroxybenzamide], in series [1], the “Selectivity index (SI)” value is given as 13.9, the inhibition at 10 µM turned out to be 100% and the IC50 is 2.18 µM. Moreover, the CC50 in series [2] turned out to be 30.2 ± 4.1 µM.

Take `O=C(Nc1ccc(NCCCO)cc1Cl)c1cc(Cl)ccc1O` [Compound 120, 5-Chloro-N-(2-chloro-4-((3-hydroxypropyl)amino)phenyl)-2-hydroxybenzamide]: in series [1], the inhibition at 10 µM came out at 36 ± 4.2%. Also, in series [1] ({}), the “Plaque Assay (%) Inhibition (10 μM)” value was “inactive”. Further, in series [2], the CC50 is 106 µM.

Consider `O=C(NCCc1ccc(F)cc1)c1cc(Cl)ccc1O` [Compound 52, 5-Chloro-N-(4-fluorophenethyl)-2-hydroxybenzamide], for which, in series [1], the “Selectivity index (SI)” value is reported as 39.1, the inhibition at 10 µM was found to be 98.7 ± 1.8% and the IC50 came out at 3.94 µM. In series [2], the CC50 came out at 154 µM.

Take `O=C(Nc1ccc(NCc2ccccc2)cc1Cl)c1cc(Cl)ccc1O` [Compound 94, N-(4-(Benzylamino)-2-chlorophenyl)-5-chloro-2-hydroxybenzamide]: in series [1], the “Selectivity index (SI)” value came out at 7.8, the inhibition at 10 µM stood at 100% and the half-maximal inhibitory concentration (IC50) amounted to 2.52 ± 0.01 µM. Moreover, the CC50 in series [2] amounted to 19.7 ± 2.8 µM.

In the case of `O=C(Nc1cc(F)cc(C(F)(F)F)c1)c1ccccc1O` [Compound 18, N-(3-Fluoro-5-(trifluoromethyl)phenyl)-2-hydroxybenzamide], in series [1], the inhibition at 10 µM came to 98.7 ± 1.9% and the IC50 was 1.07 µM. Further, in series [2], the CC50 is 16.3 µM.

Consider `O=C(Cc1cc(Cl)ccc1O)Nc1cc(F)cc(C(F)(F)F)c1` [Compound 53, 2-(5-Chloro-2-hydroxyphenyl)-N-(3-fluoro-5-(trifluoromethyl)phenyl)acetamide], for which, in series [1], the “Selectivity index (SI)” value worked out at 4.8, the inhibition at 10 µM worked out at 91 ± 3.6% and the half-inhibitory concentration (IC50) was determined as 4.92 µM. The CC50 in series [2] turned out to be 23.7 ± 1.5 µM.

For the compound `CC(C)[C@H](NC(=O)c1cc(Cl)ccc1O)C(=O)Nc1cc(F)cc(C(F)(F)F)c1` [Compound 67, (S)-5-Chloro-N-(1-((3-fluoro-5-(trifluoromethyl)phenyl)amino)-3-methyl-1-oxobutan-2-yl)-2-hydroxybenzamide], in series [1], the “Selectivity index (SI)” value was 65.2, the inhibition at 10 µM stood at 95.8 ± 5.9% and the IC50 is 0.66 µM. Also, the CC50 in series [2] amounted to 43 µM.

On to `O=C(N[C@@H](Cc1ccccc1)C(=O)Nc1ccc([N+](=O)[O-])cc1Cl)c1cc(Cl)ccc1O` [Compound 59, (S)-5-chloro-N-(1-((2-chloro-4-nitrophenyl)amino)-1-oxo-3-phenylpropan-2-yl)-2-hydroxybenzamide], for which the inhibition at 10 µM in series [1] turned out to be 100%. Also, the CC50 in series [2] turned out to be 15.2 µM.

`O=C(NCc1ccc(C(F)(F)F)cc1F)c1cc(Cl)ccc1O` [Compound 37, 5-Chloro-N-(2-fluoro-4-(trifluoromethyl)benzyl)-2-hydroxybenzamide]: in series [1], the inhibition at 10 µM turned out to be 98.8 ± 0.8% and the IC50 came out at 1.32 ± 0.04 µM. For the same compound, the CC50 in series [2] was 45.6 ± 7.3 µM.

Turning to `O=C(Nc1ccc(NCC2CCCC2)cc1Cl)c1cc(Cl)ccc1O` [Compound 86, 5-Chloro-N-(2-chloro-4-((cyclopentylmethyl)amino)phenyl)-2-hydroxybenzamide], in series [1], the “Selectivity index (SI)” value was determined as 17.3, the inhibition at 10 µM was 100% and the IC50 is 1.24 µM. The CC50 in series [2] came out at 21.5 µM.

`O=C(NCc1ccc(NC2CCCC2)cc1Cl)c1cc(Cl)ccc1O` [Compound 145, 5-Chloro-N-(2-chloro-4-(cyclopentylamino)benzyl)-2-hydroxybenzamide]: in series [1], the “Selectivity index (SI)” value was 3.6, the inhibition at 10 µM amounted to 98.5 ± 0.7% and the IC50 was determined as 7.97 ± 0.43 µM. The CC50 in series [2] turned out to be 28.3 ± 2.5 µM.

Regarding `O=C(Nc1ccc(NCc2cc(Cl)cc(Cl)c2)cc1Cl)c1cc(Cl)ccc1O` [Compound 104, 5-Chloro-N-(2-chloro-4-((3,5-dichlorobenzyl)amino)phenyl)-2-hydroxybenzamide], in series [1], the “Selectivity index (SI)” value is 9.3, the inhibition at 10 µM came to 100% and the IC50 was 1.43 ± 0.17 µM. The CC50 in series [2] turned out to be 13.3 ± 7.6 µM.

`CS(=O)(=O)Nc1ccc(Cl)cc1C(=O)NCC(=O)Nc1ccc([N+](=O)[O-])cc1Cl` [Compound 72, 5-Chloro-N-(2-((2-chloro-4-nitrophenyl)amino)-2-oxoethyl)-2-(methylsulfonamido)benzamide]: in series [1], the “Selectivity index (SI)” value is reported as 14.6, the inhibition at 10 µM came out at 99.6 ± 5.5% and the IC50 was 9.65 ± 0.01 µM. The CC50 in series [2] worked out at 141 ± 13.5 µM.

With `O=C(NCc1ccc(Cl)cc1Cl)c1cc(Cl)ccc1O` [Compound 32, 5-Chloro-N-(2,4-dichlorobenzyl)-2-hydroxybenzamide], in series [1], the inhibition at 10 µM is 99.2 ± 0.4% and the IC50 was found to be 1.73 ± 0.51 µM. In addition, the CC50 in series [2] was determined as 30.9 ± 13.6 µM.

With `C[C@H](NC(=O)c1cc(Cl)ccc1O)c1ccccc1` [Compound 47, (S)-5-Chloro-2-hydroxy-N-(1-phenylethyl)benzamide], in series [1], the “Selectivity index (SI)” value came to 78.5, the inhibition at 10 µM was 100% and the IC50 is 2.54 µM. In addition, the CC50 in series [2] stood at 199 µM.

Take `O=C(Nc1ccc(N(CC2CC2)CC2CC2)cc1Cl)c1cc(Cl)ccc1O` [Compound 92, N-(4-(Bis(cyclopropylmethyl)amino)-2-chlorophenyl)-5-chloro-2-hydroxybenzamide]: in series [1], the “Selectivity index (SI)” value was found to be 20.7, the inhibition at 10 µM was 100% and the IC50 is 0.62 ± 0.01 µM. Moreover, in series [2], the CC50 came out at 12.8 ± 4.2 µM.

As to `O=C(Nc1ccc(NCc2cc(F)cc(C(F)(F)F)c2)cc1Cl)c1cc(Cl)ccc1O` [Compound 106, 5-Chloro-N-(2-chloro-4-((3-fluoro-5-(trifluoromethyl)benzyl)amino)phenyl)-2-hydroxybenzamide], in series [1], the “Selectivity index (SI)” value stood at 26.7, the inhibition at 10 µM came to 100% and the IC50 worked out at 1.16 ± 0.13 µM. Further, the CC50 in series [2] amounted to 30.9 ± 4.8 µM.

`CC(C)Nc1ccc(NC(=O)c2cc(Cl)ccc2O)c(Cl)c1` [Compound 81, 5-Chloro-N-(2-chloro-4-(isopropylamino)phenyl)-2-hydroxybenzamide]: in series [1], the “Selectivity index (SI)” value is listed as 12.5, the inhibition at 10 µM amounted to 100% and the IC50 was 0.88 µM. Besides, in series [2], the CC50 was 11 ± 1.4 µM.

With `CC(C)[C@H](NC(=O)c1cc(Cl)ccc1O)C(=O)Nc1ccc(NC2CCCC2)cc1Cl` [Compound 147, (S)-5-chloro-N-(1-((2-chloro-4-(cyclopentylamino)phenyl)amino)-3-methyl-1-oxobutan-2-yl)-2-hydroxybenzamide], in series [1], the “Selectivity index (SI)” value was 28.9, the inhibition at 10 µM amounted to 99.5 ± 0.7% and the IC50 is 3.83 ± 0.42 µM. Also, the CC50 in series [2] turned out to be 111 ± 8.4 µM.

As for `CCCCCCC(C)Nc1ccc(NC(=O)c2cc(Cl)ccc2O)c(Cl)c1` (centres unmarked) [Compound 83, 5-Chloro-N-(2-chloro-4-(octan-2-ylamino)phenyl)-2-hydroxybenzamide], in series [1], the “Selectivity index (SI)” value is given as 73.4, the inhibition at 10 µM was 100% and the half-inhibitory concentration (IC50) came to 0.32 µM. The CC50 in series [2] turned out to be 23.5 ± 3 µM.

Turning to `O=C(NCc1ccc([N+](=O)[O-])cc1Cl)c1cc(Cl)ccc1O` [Compound 30, 5-Chloro-N-(2-chloro-4-nitrobenzyl)-2-hydroxybenzamide], in series [1], the inhibition at 10 µM is 100% and the IC50 is 1.4 ± 0.11 µM. Also, the CC50 in series [2] came to 51.4 ± 3.7 µM.

Turning to `O=C(NCc1ccc(F)cc1)c1cc(Cl)ccc1O` [Compound 40, 5-Chloro-N-(4-fluorobenzyl)-2-hydroxybenzamide], the inhibition at 10 µM in series [1] was determined as 72 ± 3%.

Turning to `CN(Cc1ccc(F)cc1)C(=O)c1cc(Cl)ccc1O` [Compound 41, 5-Chloro-N-(4-fluorobenzyl)-2-hydroxy-N-methylbenzamide], the inhibition at 10 µM in series [1] came out at 0%.

For `O=C(Nc1ccc(NCCN2CCOCC2)cc1Cl)c1cc(Cl)ccc1O` [Compound 129, 5-Chloro-N-(2-chloro-4-((2-morpholinoethyl)amino)phenyl)-2-hydroxybenzamide], the inhibition at 10 µM in series [1] was found to be 1.4 ± 12.3%.
